Source: patent US12419869B2, “Methods of treating multiple sclerosis” (Vanda Pharmaceuticals Inc., priority 2021, dated 2025)

How the values were obtained:
[1] = system: peripheral blood lymphocyte count; assay: Peripheral blood lymphocyte count in healthy volunteers; assay type: in vivo, human
Protocol: In healthy volunteers, PONVORY induces a dose-dependent reduction of the peripheral blood lymphocyte count from a single dose of 5 mg onwards, with the greatest reduction observed 6 hours post-dose, caused by reversible sequestration of lymphocytes in lymphoid tissues. After 7 daily doses of 20 mg, the greatest decrease in absolute mean lymphocyte count was to 26% of baseline (650 cells/μL), observed 6 hours after administration. Peripheral blood B cells [CD19+] and T cells [CD3+], T-helper [CD3+CD4+], and T-cytotoxic [CD3+CD8+] cell subsets are all affected, while NK cells are not. T-helper cells were more sensitive to the effects of ponesimod than T-cytotoxic cells.

[2] = system: peripheral lymphocyte count; assay type: in vivo, human
Excerpt: PONVORY causes a dose-dependent reduction in peripheral lymphocyte count to 30-40% of baseline values because of reversible sequestration of lymphocytes in lymphoid tissues [see Clinical Pharmacology (12.2)]. PONVORY may therefore increase the susceptibility to infections. Life-threatening and rare fatal infections have been reported in association with other sphingosine 1-phosphate (SIP) receptor modulators.
Initiation of treatment with PONVORY should be delayed in patients with active infection until resolution. Lymphocyte counts returned to the normal range in 90% of patients within 1 week of stopping therapy in modeling studies [see Clinical Pharmacology (12.2)]. In Study 1, peripheral lymphocyte counts returned to normal range within 2 weeks after discontinuation of PONVORY, which was the first timepoint evaluated. Because residual pharmacodynamic effects, such as lowering effects on peripheral lymphocyte count, may persist for 1 to 2 weeks after discontinuation of PONVORY, vigilance for infection should be continued for 1 to 2 weeks after PONVORY is discontinued [see Warnings and Precautions (5.12)].
In Study 1, the proportion of patients who experienced lymphocyte counts less than 0.2×10^9/L was 3.2%. Effective diagnostic and therapeutic strategies should be employed in patients with symptoms of infection while on therapy. Consider interruption of treatment with PONVORY if a patient develops a serious infection.

rat = assay: Micronucleus in rat; settings: in vivo
Excerpt: Ponesimod was negative in a battery of in vitro (Ames, chromosomal aberration in mammalian cells) and in vivo (micronucleus in rat) assays.

## CCC/N=C1\S/C(=C\c2ccc(OC[C@H](O)CO)c(Cl)c2)C(=O)N1c1ccccc1C [Ponesimod, (R)-5-[3-chloro-4-(2,3-dihydroxy-propoxy)-benz[Z]ylidene]-2-([Z]-propylimino)-3-o-tolyl-thiazolidin-4-one]
[1]; after 7 daily doses of 20 mg
  Absolute mean lymphocyte count at greatest decrease: 650 cells/μL
[1]; after 7 daily doses of 20 mg, 6 hours after administration
  Greatest decrease in absolute mean lymphocyte count, % of baseline: 26 % of baseline
[1]; post-dose, healthy volunteers
  Time of greatest reduction of peripheral blood lymphocyte count: 6 h
[2]; Study 1, first timepoint evaluated
  Time for peripheral lymphocyte counts to return to normal range after discontinuation: ≤ 2 weeks
[2]; dose-dependent
  Peripheral lymphocyte count reduced to % of baseline values: 30-40 % of baseline
[2]; human, in vivo
  Proportion of patients with lymphocyte counts less than 0.2×10^9/L: 3.2%
rat
  Micronucleus in rat result: negative
